Data published in PubChem BioAssay (NCI).
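Exposure lasted 48 hours, with cells grown in 96-well plates and compounds tested at five concentrations. Definition used: TGI = concentration required for complete inhibition of growth.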

Columns and labels:
Test in all cases: growth of human tumour cells (NCI), 48 h
SF-295 CNS = tested on: SF-295 CNS
M14 melanoma = tested on: M14 melanoma
MDA-MB-231 breast = tested on: MDA-MB-231 breast
CAKI-1 renal = tested on: CAKI-1 renal
HL-60(TB) leukemia = tested on: HL-60(TB) leukemia
NCI-H226 lung = tested on: NCI-H226 lung
UACC-62 melanoma = tested on: UACC-62 melanoma
SW-620 colon = tested on: SW-620 colon
ACHN renal = tested on: ACHN renal
786-0 renal = tested on: 786-0 renal
PC-3 prostate = tested on: PC-3 prostate
RPMI-8226 leukemia = tested on: RPMI-8226 leukemia
T-47D breast = tested on: T-47D breast
SK-MEL-28 melanoma = tested on: SK-MEL-28 melanoma
SF-268 CNS = tested on: SF-268 CNS
CCRF-CEM leukemia = tested on: CCRF-CEM leukemia
NCI-H460 lung = tested on: NCI-H460 lung
SR leukemia = tested on: SR leukemia
IGROV1 ovarian = tested on: IGROV1 ovarian

CN(C(=S)Cc1ccc(Cl)c(Cl)c1)C1CCCC[C@@H]1N1CCCC1 (stereo partly drawn)
TGI (SF-295 CNS): 36.2 µM
TGI (M14 melanoma): 37.2 µM
TGI (MDA-MB-231 breast): > 100 µM
TGI (CAKI-1 renal): > 100 µM
TGI (HL-60(TB) leukemia): > 100 µM
TGI (NCI-H226 lung): > 100 µM
TGI (UACC-62 melanoma): 34.1 µM
TGI (SW-620 colon): 48.4 µM
TGI (ACHN renal): > 100 µM
TGI (786-0 renal): 55 µM
TGI (PC-3 prostate): > 100 µM
TGI (RPMI-8226 leukemia): > 100 µM
TGI (T-47D breast): > 100 µM
TGI (SK-MEL-28 melanoma): 31.6 µM

O=C(O/N=c1/ccc(=O)/c(=N\OC(=O)c2ccccc2)c1=O)c1ccccc1
TGI (SF-295 CNS): > 100 µM
TGI (M14 melanoma): > 100 µM
TGI (SF-268 CNS): > 100 µM
TGI (CCRF-CEM leukemia): 89.7 µM
TGI (CAKI-1 renal): > 100 µM
TGI (NCI-H460 lung): > 100 µM
TGI (HL-60(TB) leukemia): 52.1 µM
TGI (NCI-H226 lung): > 100 µM
TGI (SR leukemia): > 100 µM
TGI (IGROV1 ovarian): > 100 µM
TGI (SW-620 colon): > 100 µM
TGI (ACHN renal): > 100 µM
TGI (786-0 renal): > 100 µM
TGI (PC-3 prostate): > 100 µM
TGI (RPMI-8226 leukemia): > 100 µM
TGI (T-47D breast): > 100 µM
TGI (SK-MEL-28 melanoma): > 100 µM

COc1ccc(-c2c(-c3ccccc3)c(C)nc3[nH]c(=S)[nH]c(=S)c23)cc1OC
TGI (SF-295 CNS): > 100 µM
TGI (M14 melanoma): > 100 µM
TGI (MDA-MB-231 breast): > 100 µM
TGI (SF-268 CNS): > 100 µM
TGI (CCRF-CEM leukemia): 72.5 µM
TGI (CAKI-1 renal): > 100 µM
TGI (NCI-H460 lung): 98.3 µM
TGI (HL-60(TB) leukemia): > 100 µM
TGI (NCI-H226 lung): > 100 µM
TGI (UACC-62 melanoma): 40.2 µM
TGI (IGROV1 ovarian): > 100 µM
TGI (SW-620 colon): > 100 µM
TGI (ACHN renal): > 100 µM
TGI (786-0 renal): > 100 µM
TGI (PC-3 prostate): > 100 µM
TGI (RPMI-8226 leukemia): > 100 µM
TGI (T-47D breast): > 100 µM
TGI (SK-MEL-28 melanoma): 52.8 µM

CCOC(=O)c1c(N2CCOCC2)ncn(-c2cccc(Cl)c2)c1=O
TGI (SF-295 CNS): > 100 µM
TGI (M14 melanoma): > 100 µM
TGI (MDA-MB-231 breast): > 100 µM
TGI (SF-268 CNS): > 100 µM
TGI (CCRF-CEM leukemia): > 100 µM
TGI (CAKI-1 renal): > 100 µM
TGI (NCI-H460 lung): > 100 µM
TGI (HL-60(TB) leukemia): > 100 µM
TGI (NCI-H226 lung): > 100 µM
TGI (UACC-62 melanoma): > 100 µM
TGI (IGROV1 ovarian): > 100 µM
TGI (SW-620 colon): > 100 µM
TGI (ACHN renal): > 100 µM
TGI (786-0 renal): > 100 µM
TGI (PC-3 prostate): > 100 µM
TGI (RPMI-8226 leukemia): > 100 µM
TGI (T-47D breast): > 100 µM
TGI (SK-MEL-28 melanoma): > 100 µM

Cc1ccc2c(=O)c(-c3nnc(NC4CCCCC4)s3)c[nH]c2n1
TGI (SF-295 CNS): > 100 µM
TGI (M14 melanoma): > 100 µM
TGI (MDA-MB-231 breast): > 100 µM
TGI (SF-268 CNS): > 100 µM
TGI (CCRF-CEM leukemia): > 100 µM
TGI (CAKI-1 renal): > 100 µM
TGI (NCI-H460 lung): > 100 µM
TGI (HL-60(TB) leukemia): > 100 µM
TGI (NCI-H226 lung): > 100 µM
TGI (UACC-62 melanoma): > 100 µM
TGI (IGROV1 ovarian): > 100 µM
TGI (SW-620 colon): > 100 µM
TGI (ACHN renal): > 100 µM
TGI (786-0 renal): > 100 µM
TGI (PC-3 prostate): > 100 µM
TGI (RPMI-8226 leukemia): > 100 µM
TGI (T-47D breast): > 100 µM
TGI (SK-MEL-28 melanoma): > 100 µM

COc1ccc(/C=C2\CCC(C)c3c2nc(N)c(C#N)c3-c2ccc(OC)c(OC)c2)cc1OC (stereo not drawn)
TGI (SF-295 CNS): > 100 µM
TGI (M14 melanoma): > 100 µM
TGI (MDA-MB-231 breast): > 100 µM
TGI (SF-268 CNS): > 100 µM
TGI (CCRF-CEM leukemia): > 100 µM
TGI (CAKI-1 renal): > 100 µM
TGI (HL-60(TB) leukemia): > 100 µM
TGI (NCI-H226 lung): > 100 µM
TGI (UACC-62 melanoma): > 100 µM
TGI (IGROV1 ovarian): > 100 µM
TGI (SW-620 colon): > 100 µM
TGI (ACHN renal): > 100 µM
TGI (786-0 renal): > 100 µM
TGI (PC-3 prostate): > 100 µM
TGI (RPMI-8226 leukemia): > 100 µM
TGI (T-47D breast): 6.38 µM
TGI (SK-MEL-28 melanoma): > 100 µM

COc1ccc(CCc2ccc3c(c2)OCO3)cc1
TGI (SF-295 CNS): > 100 µM
TGI (M14 melanoma): > 100 µM
TGI (MDA-MB-231 breast): > 100 µM
TGI (SF-268 CNS): > 100 µM
TGI (CCRF-CEM leukemia): > 100 µM
TGI (CAKI-1 renal): > 100 µM
TGI (NCI-H460 lung): > 100 µM
TGI (HL-60(TB) leukemia): > 100 µM
TGI (NCI-H226 lung): > 100 µM
TGI (SR leukemia): 45.4 µM
TGI (UACC-62 melanoma): > 100 µM
TGI (IGROV1 ovarian): > 100 µM
TGI (SW-620 colon): > 100 µM
TGI (ACHN renal): > 100 µM
TGI (786-0 renal): > 100 µM
TGI (PC-3 prostate): > 100 µM
TGI (RPMI-8226 leukemia): > 100 µM
TGI (SK-MEL-28 melanoma): > 100 µM

C=CCc1oc(C)nc1CCCC
TGI (SF-295 CNS): > 100 µM
TGI (M14 melanoma): > 100 µM
TGI (MDA-MB-231 breast): > 100 µM
TGI (SF-268 CNS): > 100 µM
TGI (CCRF-CEM leukemia): > 100 µM
TGI (CAKI-1 renal): > 100 µM
TGI (NCI-H460 lung): > 100 µM
TGI (HL-60(TB) leukemia): > 100 µM
TGI (NCI-H226 lung): > 100 µM
TGI (UACC-62 melanoma): > 100 µM
TGI (IGROV1 ovarian): > 100 µM
TGI (SW-620 colon): > 100 µM
TGI (ACHN renal): > 100 µM
TGI (786-0 renal): > 100 µM
TGI (PC-3 prostate): > 100 µM
TGI (T-47D breast): > 100 µM
TGI (SK-MEL-28 melanoma): > 100 µM

CC(=Nc1cccc(Cl)c1)c1ccncc1
TGI (SF-295 CNS): > 100 µM
TGI (M14 melanoma): > 100 µM
TGI (MDA-MB-231 breast): > 100 µM
TGI (SF-268 CNS): > 100 µM
TGI (CCRF-CEM leukemia): > 100 µM
TGI (CAKI-1 renal): > 100 µM
TGI (NCI-H460 lung): > 100 µM
TGI (NCI-H226 lung): > 100 µM
TGI (UACC-62 melanoma): > 100 µM
TGI (IGROV1 ovarian): > 100 µM
TGI (SW-620 colon): > 100 µM
TGI (ACHN renal): > 100 µM
TGI (786-0 renal): > 100 µM
TGI (PC-3 prostate): > 100 µM
TGI (RPMI-8226 leukemia): > 100 µM
TGI (T-47D breast): > 100 µM
TGI (SK-MEL-28 melanoma): > 100 µM

O=C(/C=C/c1ccccc1)c1cc(C(=O)/C=C/c2ccccc2)c(O)cc1O
TGI (M14 melanoma): > 100 µM
TGI (CAKI-1 renal): > 100 µM
TGI (NCI-H460 lung): > 100 µM
TGI (HL-60(TB) leukemia): > 100 µM
TGI (UACC-62 melanoma): > 100 µM
TGI (IGROV1 ovarian): > 100 µM
TGI (SW-620 colon): > 100 µM
TGI (ACHN renal): > 100 µM
TGI (786-0 renal): > 100 µM
TGI (PC-3 prostate): > 100 µM
TGI (RPMI-8226 leukemia): > 100 µM
TGI (SK-MEL-28 melanoma): > 100 µM

COc1c2cc([N+](=O)[O-])cc1CN(C(=O)C(F)(F)F)CCOCCN(C(=O)C(F)(F)F)C2
TGI (SF-295 CNS): > 100 µM
TGI (M14 melanoma): > 100 µM
TGI (MDA-MB-231 breast): > 100 µM
TGI (SF-268 CNS): > 100 µM
TGI (CCRF-CEM leukemia): > 100 µM
TGI (CAKI-1 renal): > 100 µM
TGI (NCI-H460 lung): > 100 µM
TGI (HL-60(TB) leukemia): > 100 µM
TGI (NCI-H226 lung): > 100 µM
TGI (UACC-62 melanoma): > 100 µM
TGI (IGROV1 ovarian): > 100 µM
TGI (SW-620 colon): > 100 µM
TGI (ACHN renal): > 100 µM
TGI (786-0 renal): > 100 µM
TGI (PC-3 prostate): > 100 µM
TGI (T-47D breast): > 100 µM
TGI (SK-MEL-28 melanoma): > 100 µM
